Data taken from patent publication US8093274B2, “Inhibitors of protein prenyltransferases” (The Regents of the University of California, priority 2006, dated 2012).

How the values were obtained:
[1] = molecular target: GGTase I (substrate RhoA) (Homo sapiens, UniProt P49354+P53609); assay: GGTase I filter-binding assay with RhoA as substrate; format: biochemical; settings: for specificity of GGTase I inhibition: compared with FTase and GGTase-II, varying concentrations, FIGS. 20A-20C
Procedure: (§1) The pilot library was screened for inhibitors of protein geranylgeranyltransferase type I. Protein prenyltransferase assays were carried out by using filter binding. Two different substrates, RhoA and K-Ras4B, were used for the assay. RhoA ends with the CaaL motif and is an exclusive substrate for GGTase I, while K-Ras4B ends with the CaaX motif and is modified by both GGTase I and FTase.
(§2) The % activity of GGTase I was determined as follows: a working solution that contained each compound in DMSO at the concentration of 1 mM was prepared. The working solution was added to GGTase I reaction mixture so that the final concentration of the compound is 50 μM. GGTase I activity was assayed by incubating [^3H]GGPP with K-Ras4B or RhoA protein in the presence of GGTase I and examining radioactivity incorporated into the substrate protein by spotting onto a filter paper. After washing with TCA, ethanol and acetone, the radioactivity retained on the filter was determined by the use of a scintillation counter. GGTase I activity in the presence of DMSO was taken as a 100% value and the activity in the presence of the compound was shown as percent activity compared with the 100% value. […] For 6-aryl-4-mercapto-N-sulfonyl-piperidine-3-carboxylic acid 11 the 4-mercapto substituent appeared critical to endowing GGTase inhibitory activity. […] 4-Chlorobenzylthio substituent was the next best; 12 compounds out of 21 containing the 4-chlorobenzylthio moiety were active. 4-Benzylthio substituent was also good; 7 piperidines out of 21 bearing 4-benzylthio group were active. […] 19 imines (C15>C12=C41>C40>C01=C11>C05=C10=C30=C35=C37=C38>C02, C03, C04, C06, C39=C43) out of 21 appeared in the GGTIs. […] This corresponds to 47 6-aryl-4-mercapto-N-sulfonyl-piperidine-3-carboxylic acids out of 357 compounds.
(§3) A collection of 138 heterocycles was screened for their ability to inhibit the activity of human GGTase-I to geranylgeranylate K-Ras4B or RhoA. Purified GGTase-1 was incubated with its substrate protein K-Ras4B or RhoA, [^3H]GGPP, and the 138 compounds. After 30 min, the degree of incorporation of tritiated geranylgeranyl groups was measured using a scintillation counter.
(§4) The GGTase-I assay was carried out using RhoA as a substrate protein, GGTase-I (JENA Bioscience) and [3H]geranylgeranyl pyrophosphate. Incubation was for 30 min at 37 C. GGTase-H (or RabGGTase) assay was carried out using YPT1 as a substrate protein, GGTase-H (Calbiochem, San Diego, Calif.) plus REP1 (Calbiochem) and [3H]geranylgeranyl pyrophosphate. Incubation was for 30 min at 37 C. FIGS. 20D-20F show the three dimensional structure of GGTase I (D), FTsse (E) and GGTase II (F) which can be obtained from X-ray diffraction studies of protein crystals.

[2] = molecular target: T1, protein farnesyltransferase (FTase) (Rattus norvegicus, UniProt Q02293+Q04631); assay: Protein farnesyltransferase assay with K-Ras4B and [3H]FPP; format: biochemical; settings: for inhibition of FTase: at concentrations at which they inhibited GGTase-I by more than 90%
T1 construct: purchased JENA Bioscience
Description: To further characterize the pilot library, inhibitors of protein farnesyltransferase were identified. This was accomplished by using K-Ras4B as a substrate protein, tritiated farnesylpyrophosphate ([^3H]FPP) and protein farnesyltransferase. See Finegold, A. A., Johnson, D. I., Farnsworth, C. C., Gelb, M. H., Judd, S. R., Glomset, J. A. and Tamanoi, F. (1991) Protein geranylgeranyltransferase of Saccharomyces cerevisiae is specific for Cys-Xaa-Xaa-Leu motif and requires the CDC43 gene product but not the DPRI gene product. Proc. Natl. Acad. Sci. USA 88, 4448-4452. […] On the other hand, the structure of the compounds P1-F11, P2-B7 and P2-E9 resemble those of GGTIs. The FTI P1-F11 resembles the GGTI P1-F10, while the FTI P2-B7 resembles the GGTI P2-C10. The FTI P2-E9 is similar to the GGTI P2-G3. Similarity of some GGTI and FTI compounds may point to common structural features between the two closely related enzymes. As described before, FTase and GGTase I have similar three-dimensional structures and a shared alpha subunit. On the other hand, FTase specific inhibitors may recognize a region(s) that is different between the two enzymes.
Varying concentrations of the two compounds were added to each enzyme reaction. The FTase (protein farnesyltransferase) assay was carried out using K-Ras4B as a substrate protein, FTase (JENA Bioscience, San Diego, Calif.) and […] pyrophosphate. Incubation was for 30 min at 37 C.

GGTase-I = GGTase-I inhibition kinetics, double reciprocal plots; format: biochemical; settings: varying GGPP with fixed RhoA
Procedure: as §4
The graphs in FIG. 21 show double reciprocal plots obtained from substrate velocity curves for the inhibition of GGTase-I by P3-E5 (left) and P5-H6 (right). The upper figures show varying GGPP concentrations with a fixed RhoA protein concentration were used. The lower figures show varying RhoA protein concentrations with a fixed GGPP concentration was used. The following scale was used to prepare the graphs: Y-axis: 1/v, fmol/min. X-axis: 1/s, mM.

[3] = test system: geranylgeranylated Rheb (Rheb-CSVL) in HEK 293 cells; assay: Geranylgeranylation of Rheb-CVSL in HEK 293 cells, mobility shift on Western blot; format: cell-based, human; settings: for inhibition of geranylgeranylation of Myc-HA tagged-Rheb-CVSL in cells: HEK 293 cells treated for 48 hours; for inhibition of geranylgeranylation of Rheb-CSVL within the cell: HEK 293 cells, FIG. 33
Description: Finally, we investigated in vivo effects of compounds 22 (also known as UC-22) and 23 (also known as UC-23). Human embryonic kidney (HEK) 293 cells were transfected with the Rheb-CSVL construct that expresses the geranylgeranylated form of the Rheb protein. Inhibition of the geranylgeranylation of this protein can be detected from a shift in its mobility on SDS polyacrylamide gel; the unprocessed form appears as a slowly migrating band.
Human embryonic kidney (HEK) 293 cells expressing Myc-HA tagged-Rheb-CVSL (upper) or Myc-HA tagged-Rheb-WT (lower) were treated with P3-E5 for 48 hours and then lysed. The cell lysates were run on a SDS polyacrylamide gel and immunoblotted using anti-Myc or anti-Actin antibody. The descriptors P and U indicate processed and unprocessed Rheb, respectively.
Human embryonic kidney (HEK) 293 cells expressing Myc-HA tagged-Rheb-CVSL (upper) or Myc-HA tagged-Rheb-WT (lower) were treated with mP5-H6a (also referred to as mP5-H6), or GGTI-298 for 48 hours and then lysed. Lysates were run on a SDS polyacrylamide gel and immunoblotted with anti-Myc or anti-Actin antibody.

K562 cells [4] = assay: Proliferation of K562 cells, cell counting kit-8; format: cell-based, human; settings: 72 hours; relative to DMSO control
Procedure: (§5) K562 cells are a cell line of human erythroleukemia cells. The K562 cells were treated with P3-E5, P5-H6 or GGTI-298 (a known GGTI compound illustrated in FIG. 27) for 72 hours and then cell number was counted using cell counting kit-8 (Dojindo, Gaithersburg, Md.). Cell viability relative to the DMSO control and the known GGTI compound is plotted in FIG. 23.

K562 cells [5] = assay: Cell cycle profile of K562 cells by flow cytometry; format: cell-based, human; settings: 48 hours; 0 to 10 mM
Procedure: K562 cells were treated with indicated concentrations (mM) of P3-E5 (ranging from […]) or GGTI-298 (ranging from […]) for 48 hours. Cell cycle profiles were monitored by flow cytometry. Percentages of cells in each phase of the cell cycle are indicated by different colors. Red: G0/G1 phase. Black: S phase. Gray: G2/M phase.

[6] = molecular target: GGTase I (substrate K-Ras4B) (Homo sapiens, UniProt P49354+P53609); assay: GGTase I filter-binding assay with K-Ras4B as substrate; format: biochemical; settings: 50 μM compound; DMSO = 100%; smaller numbers indicate better inhibition; first number of pair; read-out: % activity of GGTase I for protein K-Ras4B in the presence of the compound
Procedure: as §1, §2, §3

Panc-1 cells = assay: Proliferation of Panc-1 cells; format: cell-based, human
Procedure: as §5
(§6) Panc-1 cells (Pancreatic cancer cell line) and Jurkat cells (T-cell leukemia) were treated with 12.5 μM of P5-H6 or 12.5 μM of mP5-H6a for 72 hours. The cell number was counted as described in Example 5.

Jurkat cells = assay: Proliferation of Jurkat cells; format: cell-based, human
Procedure: as §5, §6

BT474 = assay: Proliferation of BT474 cells; format: cell-based, human
MDA-MB231 = assay: Proliferation of MDA-MB231 cells; format: cell-based, human
MiaPaCa2 = assay: Proliferation of MiaPaCa2 cells; format: cell-based, human

Row | SMILES | IC50 ([1]; FIG. 15, read-out: IC50 for the inhibition of GGTase I using RhoA as a substrate) | specificity of GGTase I inhibition [1] | inhibition of FTase activity ([2]; FIG. 16, concentration increased to 100 μM) | inhibition of FTase [2] | mode of inhibition of GGTase-I (GGTase-I) | inhibition of geranylgeranylation of Myc-HA tagged-Rheb-CVSL in cells [3] | inhibition of geranylgeranylation of Rheb-CSVL within the cell [3] | inhibition of proliferation of K562 cells (K562 cells [4]) | cell cycle effect in K562 cells (K562 cells [5]) | activity at 50 µM [6] | activity at 50 µM ([1]; 50 μM compound, DMSO = 100%, smaller numbers indicate better inhibition, second number of pair, read-out: % activity of GGTase I for protein RhoA in the presence of the compound) | inhibition of proliferation of pancreatic cancer cell line Panc-I (Panc-1 cells) | inhibition of growth of Panc-1 cells relative to P5-H6 (Panc-1 cells; 12.5 μM, 72 hours) | inhibition of proliferation of leukemic cell line Jurkat (Jurkat cells) | inhibition of growth of Jurkat cells relative to P5-H6 (Jurkat cells; 12.5 μM, 72 hours) | inhibition of proliferation of breast cancer cell line BT474 (BT474) | inhibition of proliferation of breast cancer cell line MDA-MB231 (MDA-MB231) | inhibition of proliferation of pancreatic cancer cell line MiaPaCa2 (MiaPaCa2)
1 | Cc1ccccc1S(=O)(=O)N1[C@@H](c2cccc(Cl)c2)C(C(=O)O)=CC[C@H]1c1ccc(Cl)cc1 (relative stereo) [P3-E5] | 7 µM | specifically inhibit GGTase I | no inhibition of FTase activity was observed | did not inhibit FTase | compete with a substrate protein but do not compete with GGPP | inhibits geranylgeranylation in cells | inhibit geranylgeranylation within the cell | inhibit proliferation of K562 cells | induces G1 arrest in K562 cells |  |  |  |  |  |  |  |  | 
2 | Cc1ccccc1S(=O)(=O)N1[C@@H](c2ccc(Cl)cc2)C(C(=O)O)=C[C@H]1C(C)(C)C (relative stereo) [P5-H6] |  | specifically inhibit GGTase I |  | did not inhibit FTase | compete with a substrate protein but do not compete with GGPP |  | inhibit geranylgeranylation within the cell | inhibit proliferation of K562 cells |  | 13.3% | 5.3% |  |  |  |  |  |  | 
3 | COC(=O)[C@H](Cc1ccccc1)NCC(=O)OCC1=C[C@@H](C(C)(C)C)N(S(=O)(=O)c2ccccc2C)C1c1ccc(Cl)cc1 (stereo partly drawn) [mP5-H6] |  |  |  |  |  | inhibits geranylgeranylation in vivo |  |  |  |  |  | inhibits proliferation | inhibits the growth of Panc-1 cells and Jurkat cells better than P5-H6 | inhibits proliferation | inhibits the growth of Panc-1 cells and Jurkat cells better than P5-H6 | inhibits proliferation | inhibits proliferation | inhibits proliferation
